Structures can show the parent of a compound that is named as a salt.
molecular target: MLK3 (Homo sapiens (Human), UniProt Q16584); assay: Radiometric Filter Plate MLK3 Assay; assay type: biochemical; details: 200 ng (130 nM) MLK3, 1 μM inactive MKK7b, 2 μM cold ATP (Km), 33P ATP, twenty minute incubation; read-out: MK3 IC50
Method: Radiometric Filter Plate MLK3 Assay
After a twenty minute incubation, the reactions were washed through filter plates and read on a scintillation counter. Results are shown in Table 4 below, in which +++ indicates ≦0.1 μM, ++ indicates >0.1 μM and ≦1 μM, and + indicates >1 μM.

Chain of MLK3 (Q16584 whole entry): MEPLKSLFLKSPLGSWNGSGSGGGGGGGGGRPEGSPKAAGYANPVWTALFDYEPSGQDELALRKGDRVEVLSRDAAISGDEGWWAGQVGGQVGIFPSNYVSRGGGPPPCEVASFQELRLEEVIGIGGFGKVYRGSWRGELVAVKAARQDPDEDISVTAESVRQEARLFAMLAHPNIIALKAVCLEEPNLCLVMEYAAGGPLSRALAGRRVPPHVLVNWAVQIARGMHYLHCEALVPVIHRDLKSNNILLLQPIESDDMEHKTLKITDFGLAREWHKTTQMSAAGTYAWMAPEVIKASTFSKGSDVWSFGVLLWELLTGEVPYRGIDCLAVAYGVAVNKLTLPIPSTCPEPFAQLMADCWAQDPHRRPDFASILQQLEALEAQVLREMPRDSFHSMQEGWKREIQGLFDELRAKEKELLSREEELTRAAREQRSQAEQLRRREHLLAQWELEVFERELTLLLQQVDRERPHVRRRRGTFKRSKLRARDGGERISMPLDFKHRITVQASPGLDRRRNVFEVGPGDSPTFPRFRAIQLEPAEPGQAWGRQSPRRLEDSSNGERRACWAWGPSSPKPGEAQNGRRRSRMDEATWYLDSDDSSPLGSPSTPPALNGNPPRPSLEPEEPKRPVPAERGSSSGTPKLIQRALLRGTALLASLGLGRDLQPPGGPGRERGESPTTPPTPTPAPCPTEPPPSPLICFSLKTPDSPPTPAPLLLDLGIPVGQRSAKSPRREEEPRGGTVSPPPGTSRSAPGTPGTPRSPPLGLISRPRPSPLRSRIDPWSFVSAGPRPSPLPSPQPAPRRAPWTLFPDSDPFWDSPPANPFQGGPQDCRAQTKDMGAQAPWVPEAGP

| IC50 | SMILES |
| --- | --- |
| < 0.1 µM | COc1cc(-c2cnc3[nH]cc(-c4ccc(N)nc4)c3c2)cc(OC)c1OC [Example 18, 5-(5-(3,4,5-trimethoxyphenyl)-1H-pyrrolo[2,3-b]pyridin-3-yl)pyridin-2-amine] |
| < 0.1 µM | Nc1ccc(-c2cnc3[nH]cc(-c4ccc5[nH]ccc5c4)c3c2)cn1 [Example 4, 5-(3-(1H-indol-5-yl)-1H-pyrrolo[2,3-b]pyridin-5-yl)pyridin-2-amine] |
| > 1 µM | Cn1ccc2cc(-n3c(=O)[nH]c4ncc(-c5ccc(O)cc5)nc43)ccc21 [Example 42, 6-(4-hydroxyphenyl)-1-(1-methyl-1H-indol-5-yl)-1H-imidazo[4,5-b]pyrazin-2(3H)-one] |
| < 0.1 µM | O=C1CN(Cc2ccc(-c3cnc4[nH]cc(-c5ccc6[nH]ccc6c5)c4c3)cc2)CCN1 [Example 142, 4-{4-[3-(1H-indol-5-yl)-1H-pyrrolo[2,3-b]pyridin-5-yl]-benzyl}-piperazin-2-one] |
| < 0.1 µM | CN1CCN(c2cc(-c3cnc4[nH]cc(-c5ccc6[nH]ccc6c5)c4c3)ccn2)CC1 [Example 7, 3-(1H-indol-5-yl)-5-(2-(4-methylpiperazin-1-yl)pyridin-4-yl)-1H-pyrrolo[2,3-b]pyridine] |
| < 0.1 µM | CC(C)(C)OC(=O)N1CCN(C(=O)c2cccc(-c3cnc4[nH]cc(-c5ccc(C(N)=O)cc5)c4c3)c2)CC1 [Example 151, 4-{3-[3-(4-carbamoyl-phenyl)-1H-pyrrolo[2,3-b]pyridin-5-yl]-benzoyl}-piperazine-1-carboxylic acid tert-butyl ester] |
| > 1 µM | O=c1[nH]c2ncc(-c3ccncc3)nc2n1-c1ccc2[nH]ncc2c1 [Example 88, 1-(1H-indazol-5-yl)-6-(pyridin-4-yl)-1H-imidazo[4,5-b]pyrazin-2(3H)-one] |
| > 1 µM | O=c1[nH]c2ncc(-c3ccncc3)nc2n1C1CCCC1 [Example 77, 1-cyclopentyl-6-(pyridin-4-yl)-1H-imidazo[4,5-b]pyrazin-2(3H)-one] |
| > 1 µM | COc1ccc(-n2c(=O)[nH]c3ncc(-c4ccc(OC)c(OC)c4)nc32)cc1 [Example 69, 6-(3,4-dimethoxyphenyl)-1-(4-methoxyphenyl)-1H-imidazo[4,5-b]pyrazin-2(3H)-one] |
| > 1 µM | COc1cc(-c2cnc3c(c2)C(=Cc2cccc(C(N)=O)c2)C(=O)N3)cc(OC)c1OC [Example 132, 3-[2-oxo-5-(3,4,5-trimethoxy-phenyl)-1,2-dihydro-pyrrolo[2,3-b]pyridin-3-ylidenemethyl]-benzamide] |
| > 1 µM | O=c1[nH]c2ncc(-c3ccncc3)nc2n1-c1ccc2[nH]ccc2c1 [Example 44, 1-(1H-indol-5-yl)-6-(pyridin-4-yl)-1H-imidazo[4,5-b]pyrazin-2(3H)-one] |
| > 1 µM | Nc1ccc(-c2cnc3[nH]cc(-c4ccc(F)c(Cl)c4)c3c2)cn1 [Example 29, 5-(3-(3-chloro-4-fluorophenyl)-1H-pyrrolo[2,3-b]pyridin-5-yl)pyridin-2-amine] |
| > 1 µM | COc1cc(-c2cnc3[nH]c(=O)n(C4CCc5ccccc54)c3n2)cc(OC)c1OC (centres unmarked) [Example 101, 1-(2,3-dihydro-1H-inden-1-yl)-6-(3,4,5-trimethoxyphenyl)-1H-imidazo[4,5-b]pyrazin-2(3H)-one] |
| < 0.1 µM | COc1cc(-c2cnc3[nH]c(=O)n(-c4cnc5[nH]ccc5c4)c3n2)cc(OC)c1OC [Example 112, 1-(1H-pyrrolo[2,3-b]pyridin-5-yl)-6-(3,4,5-trimethoxyphenyl)-1H-imidazo[4,5-b]pyrazin-2(3H)-one] |
| < 0.1 µM | COc1cc(-c2cnc3[nH]cc(-c4ccc(N)cc4)c3c2)cc(OC)c1OC [Example 15, 4-(5-(3,4,5-trimethoxyphenyl)-1H-pyrrolo[2,3-b]pyridin-3-yl)aniline] |
| > 1 µM | Cc1cc(C)cc(-c2cnc3[nH]c(=O)n(-c4ccc5scnc5c4)c3n2)c1 [Example 99, 1-(benzo[d]thiazol-5-yl)-6-(3,5-dimethylphenyl)-1H-imidazo[4,5-b]pyrazin-2(3H)-one] |
| > 1 µM | COc1cc(-c2cnc3c(c2)C(Cc2cccnc2)C(=O)N3)cc(OC)c1OC (centres unmarked) [Example 135, 3-pyridin-3-ylmethyl-5-(3,4,5-trimethoxy-phenyl)-1,3-dihydro-pyrrolo[2,3-b]pyridin-2-one] |
| < 0.1 µM | COc1cc(-c2cnc3[nH]cc(-c4ccc5[nH]ccc5c4)c3n2)ccc1N [Example 38, 4-(7-(1H-indol-5-yl)-5H-pyrrolo[3,2-b]pyrazin-2-yl)-2-methoxyaniline] |
| > 1 µM | COc1cc(-c2cnc3[nH]c(=S)n(CC4CC4)c3n2)cc(OC)c1OC [Example 127, 1-(cyclopropylmethyl)-6-(3,4,5-trimethoxyphenyl)-1H-imidazo[4,5-b]pyrazine-2(3H)-thione] |
| < 0.1 µM | COc1cc(-c2cnc3[nH]cc(-c4ccc(CNC(C)=O)cc4)c3c2)cc(OC)c1OC [Example 159, N-{4-[5-(3,4,5-Trimethoxy-phenyl)-1H-pyrrolo[2,3-b]pyridin-3-yl]-benzyl}-acetamide] |

| SMILES | IC50 |
| --- | --- |
| NC(=O)c1ccc(-c2c[nH]c3ncc(-c4ccc(C(=O)N5CCNCC5)cc4)cc23)cc1 [Example 149, 4-{5-[4-(piperazine-1-carbonyl)-phenyl]-1H-pyrrolo[2,3-b]pyridin-3-yl}-benzamide, hydrochloride salt] | < 0.1 µM |
| COc1cc(-c2cnc3c(c2)C(CC2CC2)C(=O)N3)cc(OC)c1OC (centres unmarked) [Example 123, 3-(cyclopropylmethyl)-5-(3,4,5-trimethoxyphenyl)-1H-pyrrolo[2,3-b]pyridin-2(3H)-one] | 0.1 to 1 µM |

same assay, conditions: read-out: MK3 IC50

| IC50 | SMILES |
| --- | --- |
| 0.1 to 1 µM | COc1cc(-c2cnc3[nH]cc(-c4ccc5[nH]ccc5c4)c3c2)cc(OC)c1OC [Example 1, 3-(1H-indol-5-yl)-5-(3,4,5-trimethoxyphenyl)-1H-pyrrolo[2,3-b]pyridine] |
| 0.1 to 1 µM | COc1ccc(-c2cnc3[nH]cc(-c4ccc5[nH]ccc5c4)c3c2)cc1OC [Example 2, 5-(3,4-dimethoxyphenyl)-3-(1H-indol-5-yl)-1H-pyrrolo[2,3-b]pyridine] |
| 0.1 to 1 µM | COc1cc(-c2cnc3[nH]cc(-c4ccc(C(N)=O)cc4)c3c2)ccc1N [Example 27, 4-(5-(4-amino-3-methoxyphenyl)-1H-pyrrolo[2,3-b]pyridin-3-yl)benzamide] |
| 0.1 to 1 µM | CN1CCN(Cc2ccc(-c3cnc4[nH]cc(-c5ccc(C(N)=O)cc5)c4c3)cc2)CC1 [Example 155, 4-{5-[4-(4-methyl-piperazin-1-ylmethyl)-phenyl]-1H-pyrrolo[2,3-b]pyridin-3-yl}-benzamide] |
| 0.1 to 1 µM | c1ccc(-c2cnc3[nH]cc(-c4ccc5[nH]ccc5c4)c3c2)cc1 [Example 14, 3-(1H-indol-5-yl)-5-phenyl-1H-pyrrolo[2,3-b]pyridine] |
| 0.1 to 1 µM | COc1ccc(-c2cnc3[nH]c(=O)n(-c4ccc5[nH]ccc5c4)c3n2)cc1OC [Example 47, 6-(3,4-dimethoxyphenyl)-1-(1H-indol-5-yl)-1H-imidazo[4,5-b]pyrazin-2(3H)-one] |
| 0.1 to 1 µM | CN(C)c1ccc(-c2cnc3[nH]cc(-c4ccc(N(C)C)nc4)c3c2)cn1 [Example 21, 5,5′-(1H-pyrrolo[2,3-b]pyridine-3,5-diyl)bis(N,N-dimethylpyridin-2-amine)] |
| 0.1 to 1 µM | COc1cc(-c2cnc3[nH]c(=O)n(-c4ccc(O)cc4)c3n2)cc(OC)c1OC [Example 114, 1-(4-hydroxyphenyl)-6-(3,4,5-trimethoxyphenyl)-1H-imidazo[4,5-b]pyrazin-2(3H)-one] |
| 0.1 to 1 µM | COc1cc(-c2cnc3[nH]cc(-c4ccc(F)cc4)c3c2)cc(OC)c1OC [Example 166, 3-(4-fluoro-phenyl)-5-(3,4,5-trimethoxy-phenyl)-1H-pyrrolo[2,3-b]pyridine] |
| 0.1 to 1 µM | COc1ccc(-c2cnc3[nH]c(=O)n(-c4ccccc4)c3n2)cc1OC [Example 106, 6-(3,4-dimethoxyphenyl)-1-phenyl-1H-imidazo[4,5-b]pyrazin-2(3H)-one] |
| 0.1 to 1 µM | O=c1[nH]c2ncc(-c3ccc(N4CCOCC4)cc3)nc2n1-c1ccc2[nH]ccc2c1 [Example 52, 1-(1H-indol-5-yl)-6-(4-morpholinophenyl)-1H-imidazo[4,5-b]pyrazin-2(3H)-one] |
| 0.1 to 1 µM | O=c1[nH]c2ncc(-c3ccc(N4CCOCC4)cc3)nc2n1-c1ccc2[nH]cnc2c1 [Example 104, 1-(1H-benzo[d]imidazol-5-yl)-6-(4-morpholinophenyl)-1H-imidazo[4,5-b]pyrazin-2(3H)-one] |

| SMILES | IC50 |
| --- | --- |
| CC(=O)N1CCN(C(=O)c2ccc(-c3cnc4[nH]cc(-c5ccc(C(N)=O)cc5)c4c3)cc2)CC1 [Example 150, 4-{5-[4-(4-acetyl-piperazine-1-carbonyl)-phenyl]-1H-pyrrolo[2,3-b]pyridin-3-yl}-benzamide] | 0.1 to 1 µM |

system: not listed separately; assay: Pharmacokinetic Evaluation in Mice; assay type: in vivo; design: unit not given here; details: single intravenous (IV) injection at 10 mg/kg, CL57 BL/6 mice, brain homogenate
Method: Pharmacokinetic Evaluation in Mice
Several compounds disclosed herein were evaluated in a standard murine pharmacokinetic model.
Compounds were dissolved in either 5% DMSO, 40% PEG400, and 55% saline (pH=8) or […], 40% PEG400, and 55% (20% HP-β-CD in deionized water; pH=8) to yield a nominal concentration of 2 mg/mL for intravenous administration. Compounds were administered via a single intravenous (IV) injection in CL57 BL/6 mice at 10 mg/kg in DMSO/PEG400 solution. Three mice in each group were used for blood and brain collection at each time point. Blood samples (300 μL) were collected via the retro-orbital vein predose and at 5 min, 0.25, 0.50, 1, 2, 4, 6, 8, and 24 hours postdose. Blood samples were placed into tubes containing sodium heparin and centrifuged under refrigerated conditions at 8000 rpm for 6 minutes to separate plasma from the samples. The brain of each animal was collected after the final blood collection. The whole tissue was harvested, excised and rinsed by saline, dried by filter paper, and then placed into one tube per tissue per animal. All samples were stored at −20° C. until bioanalysis.
Compound concentrations in plasma and brain homogenate were determined using a high performance liquid chromatography/mass spectrometry (HPLC/MS/MS) method (Agilent 1100 series HPLC, AB Inc. API4000 triple-quadrupole with an ESI interface and Analyst 1.4 software).
Results in the form of area under the time-versus-concentration curve (AUC) are given below in Table 5.

| AUC Brain | SMILES |
| --- | --- |
| − (− indicates <500) | COc1cc(-c2cnc3[nH]cc(-c4ccc(N)nc4)c3c2)cc(OC)c1OC [Example 18, 5-(5-(3,4,5-trimethoxyphenyl)-1H-pyrrolo[2,3-b]pyridin-3-yl)pyridin-2-amine] |
| − (− indicates <500) | Nc1ccc(-c2cnc3[nH]cc(-c4ccc5[nH]ccc5c4)c3c2)cn1 [Example 4, 5-(3-(1H-indol-5-yl)-1H-pyrrolo[2,3-b]pyridin-5-yl)pyridin-2-amine] |
| + (+ indicates ≧500) | COc1cc(-c2cnc3[nH]cc(-c4ccc5[nH]ccc5c4)c3c2)cc(OC)c1OC [Example 1, 3-(1H-indol-5-yl)-5-(3,4,5-trimethoxyphenyl)-1H-pyrrolo[2,3-b]pyridine] |
